Data on one compound can be found in article PMC5078011, “The oleocanthal-based homovanillyl sinapate as a novel c-Met inhibitor” (Oncotarget, 2016).

This test addresses c-Met (M1250T) (Homo sapiens, UniProt P08581, M1250T). Put plainly: Z'-LYTE Tyr6 peptide kinase assay, recombinant M1250T c-Met. Type of test: biochemical. Conditions: read-out: (-)-Oleocanthal^a / IC50 (μM) ± SEM.

Chain of c-Met (M1250T) (P08581 956-1390 M1250T limits assumed): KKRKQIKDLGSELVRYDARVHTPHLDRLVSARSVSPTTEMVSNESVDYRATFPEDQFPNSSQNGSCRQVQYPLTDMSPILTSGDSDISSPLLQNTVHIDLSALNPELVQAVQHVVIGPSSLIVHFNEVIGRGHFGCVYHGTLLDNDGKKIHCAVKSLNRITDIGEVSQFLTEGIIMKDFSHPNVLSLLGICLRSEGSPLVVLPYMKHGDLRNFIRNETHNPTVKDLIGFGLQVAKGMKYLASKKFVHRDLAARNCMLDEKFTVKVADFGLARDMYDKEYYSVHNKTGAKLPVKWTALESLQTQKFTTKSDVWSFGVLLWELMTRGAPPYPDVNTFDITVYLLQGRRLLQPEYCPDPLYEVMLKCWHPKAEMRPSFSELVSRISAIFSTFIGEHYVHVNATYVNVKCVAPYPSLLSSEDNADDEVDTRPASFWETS

Turning to `C/C=C(/C=O)[C@@H](CC=O)CC(=O)OCCc1ccc(O)cc1` [S (−)-oleocanthal], the IC50 is 3.9 µM.
